Where two headings read alike, the source gives them in different places.
What was measured:
human OX2 receptor = human OX2 receptor (Homo sapiens (Human), UniProt O43614); test: Measurement of orexin type 2 receptor agonist activity (Experimental Example 2-2, FDSS uCELL, calcium indicator); format: cell-based; settings: CHO cells expressing human OX2 receptor; for EC50: Fluo-4 AM
Experimental: CHO cells forcibly expressing human OX2 receptor were seeded in each well of 384 well black transparent bottom plate (BD Falcon) at 7,500 cells/well, and cultured for one day in a 5% CO2 incubator at 37° C. […] The plate was stood for 30 min in a 5% CO2 incubator at 37° C., and further stood at room temperature for 30 min. A test compound prepared by diluting with assay buffer B (HESS, 20 mM HEPES, 0.1% BSA) was added at 10 μL/well, and the fluorescence value was measured by FDSSμCELL (Hamamatsu Photonics K.K.) every one sec for 1 min, and thereafter every two sec for 1 min sec.

[1] = target: human orexin type 2 receptor (hOX2R) (Homo sapiens (Human), UniProt O43614); test: Measurement of orexin type 2 receptor agonist activity (Experimental Example 2-1, FLIPR TETRA, intracellular Ca2+); format: cell-based; settings: CHO dhfr- cells expressing hOX2R
C57BL/6J mice = test: Measurement of locomotor activity in mice (Experimental Example 3); format: in vivo, mouse; settings: male C57BL/6J mice; 30 mg/kg intraperitoneal; measured for 2 hr after administration
Experimental: Increased locomotor activity is one of the indexes of arousal action together with increase in wakefulness time, increase in body temperature, enhancement of cardiovascular system parameters and the like. In this Experimental Example, the arousal action effective for the treatment of narcolepsy was evaluated by measuring the locomotor activity of mouse. Male C57BL/6J mice (6-10 weeks old, Japan CLEA) were used for the measurement of locomotor activity (8 mice each group), infrared rays were irradiated from the top part of the cage, and a locomotor activity measuring device (MDC system—Neurosciences Idea) capable of quantifying the number of times the mice pass through the irradiated rays was used. To be specific, the mice were placed in the cage of the device and acclimatized for 4 hours or longer, and a test compound was intraperitoneally administered (dose: 30 mg/kg body weight). The locomotor activity was measured for 2 hr after the administration. In the test compound group, a solution obtained by dissolving the test compound in a solvent (composition: 10% DMSO, 10% Cremophor EL (trade name), 20% polyethylene glycol 400 (20% PEG400, 60% H2O)) was administered to mice. On the other hand, in the control group, only the aforementioned solvent not containing the test compound was administered to mice.

[2] = DMSO = 0%, reference OX-A at 10 nM
[3] = CHO, DMSO = 0%, reference OX-A at 10 nM
[4] = agonist activity, 10 nM human orexin B = 100%
[5] = value at 30 uM concentration, orexin B as full agonist = 100%

Chain of human OX2 receptor (O43614 whole entry): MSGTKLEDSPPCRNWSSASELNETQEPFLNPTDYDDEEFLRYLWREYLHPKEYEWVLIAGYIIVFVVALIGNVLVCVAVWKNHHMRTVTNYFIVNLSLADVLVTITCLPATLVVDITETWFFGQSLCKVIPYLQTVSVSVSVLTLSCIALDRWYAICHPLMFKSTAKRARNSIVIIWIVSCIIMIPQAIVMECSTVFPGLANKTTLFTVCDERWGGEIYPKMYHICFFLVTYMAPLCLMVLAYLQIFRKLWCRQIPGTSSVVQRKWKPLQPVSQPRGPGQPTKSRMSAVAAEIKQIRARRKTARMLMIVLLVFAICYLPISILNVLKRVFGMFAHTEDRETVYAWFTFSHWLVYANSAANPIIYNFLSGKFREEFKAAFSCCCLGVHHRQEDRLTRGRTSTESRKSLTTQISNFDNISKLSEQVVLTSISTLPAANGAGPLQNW
Chain of human orexin type 2 receptor (hOX2R) (O43614 whole entry): as above

Row | Compound | EC50 (human OX2 receptor) [nM] | Emax (human OX2 receptor; [3]) [%] | also measured
1 | COC(=O)N1CCC[C@H](NS(C)(=O)=O)[C@@H]1CO[C@H]1CC[C@@H](c2cccc(O)c2)CC1 (relative stereo) [Example 343, methyl cis-2-(((cis-4-(3-hydroxyphenyl)cyclohexyl)oxy)-methyl)-3-((methylsulfonyl)amino)piperidine-1-carboxylate] | 150 |  | Emax (human OX2 receptor; [2]): 109%
2 | COC(=O)N1CCC[C@H](NS(C)(=O)=O)[C@@H]1CO[C@H]1CC[C@@H](c2ccc(OC)cc2)CC1 (relative stereo) [Example 344, methyl cis-2-(((cis-4-(4-methoxyphenyl)cyclohexyl)oxy)-methyl)-3-((methylsulfonyl)amino)piperidine-1-carboxylate] | 290 | 109 | 
3 | CC(C)OC(=O)N1CCC[C@H](NS(=O)(=O)C2CC2)[C@@H]1COC1CCN(c2ncccn2)CC1 (relative stereo) [Example 356, isopropyl cis-3-((cyclopropylsulfonyl)amino)-2-(((1-(pyrimidin-2-yl)piperidin-4-yl)oxy)methyl)piperidine-1-carboxylate] | 21 | 98 | 
4 | O=C(OCC(F)(F)F)N1CCC[C@H](NS(=O)(=O)C2CC2)[C@@H]1COC1CCN(c2ncccn2)CC1 (relative stereo) [Example 360, 2,2,2-trifluoroethyl cis-3-((cyclopropylsulfonyl)amino)-2-(((1-(pyrimidin-2-yl)piperidin-4-yl)oxy)methyl)piperidine-1-carboxylate] | 210 | 98 | 
5 | CC(OC(=O)N1CCC[C@H](NS(=O)(=O)C2CC2)[C@@H]1COC1CCN(c2ncccn2)CC1)C(F)(F)F (relative stereo) [Example 362, 1,1,1-trifluoropropan-2-yl cis-3-((cyclopropylsulfonyl)amino)-2-(((1-(pyrimidin-2-yl)piperidin-4-yl)oxy)methyl)piperidine-1-carboxylate] | 390 | 95 | 
6 | CCNC(=O)N1CCC[C@H](NS(C)(=O)=O)[C@@H]1CO[C@H]1CC[C@@H](C(C)C)CC1 [Example 2, (2R,3S)—N-ethyl-2-(((cis-4-isopropylcyclohexyl)oxy)methyl)-3-((methylsulfonyl)amino)piperidine-1-carboxamide] |  |  | EC50 [1, 4]: 1.9 nM; Emax at 30 µM [1, 5]: 99%; locomotor activity (counts) (mean ± S.E.M., n = 8) (C57BL/6J mice): 817.00 counts
7 | COC(=O)N1CCC[C@H](NS(C)(=O)=O)[C@@H]1CO[C@H]1CC[C@@H](c2ccccc2)CC1 [Example 5, Methyl (2R,3S)-3-((methylsulfonyl)amino)-2-(((cis-4-phenylcyclohexyl)oxy)methyl)piperidine-1-carboxylate] |  |  | EC50 [1, 4]: 2.2 nM; Emax at 30 µM [1, 5]: 98%; locomotor activity (counts) (mean ± S.E.M., n = 8) (C57BL/6J mice): 1175.25 counts
8 | CS(=O)(=O)N[C@H]1CCCN(C(=O)CO)[C@H]1CO[C@H]1CC[C@@H](c2c(F)ccc(F)c2F)CC1 [Example 340, N-((2R,3S)-1-glycoloyl-2-(((cis-4-(2,3,6-trifluorophenyl)cyclohexyl)oxy)methyl)piperidin-3-yl)methanesulfonamide] |  |  | EC50 ([1]; FLIPR TETRA, Fluo-4AM): 2.5 nM; Emax ([1]; FLIPR TETRA, Fluo-4AM, read-out: Emax (%)): 109%; locomotor activity (counts) (mean ± S.E.M., n = 8) (C57BL/6J mice): 979.25 ± 109.96 counts
9 | N-(2-(((cis-4-(3-fluorophenyl)cyclohexyl)oxy)methyl)pyridin-3-yl)methanesulfonamide [Example 15] |  |  | EC50 [1, 4]: 280 nM; Emax [1, 5]: 105%

Now from value to compound, other results behind:

Row | EC50 (human OX2 receptor) [nM] | Emax (human OX2 receptor; [3]) [%] | Compound | also measured
10 | 21 | 105 | COC(=O)N1CCC[C@H](NS(C)(=O)=O)[C@@H]1CO[C@H]1CC[C@@H](c2ccc(O)cc2)CC1 (relative stereo) [Example 345, methyl cis-2-(((cis-4-(4-hydroxyphenyl)cyclohexyl)oxy)-methyl)-3-((methylsulfonyl)amino)piperidine-1-carboxylate] | 
11 | 260 | 94 | COC(=O)N1CCC[C@H](NS(C)(=O)=O)[C@@H]1CO[C@H]1CC[C@@H](c2ccccc2O)CC1 (relative stereo) [Example 347, methyl cis-2-(((cis-4-(2-hydroxyphenyl)cyclohexyl)oxy)-methyl)-3-((methylsulfonyl)amino)piperidine-1-carboxylate] | 
12 | 1300 | 100 | O=S(=O)(N[C@H]1CCCN[C@H]1CO[C@H]1CC[C@@H](c2ccccc2)CC1)C1CC1 (relative stereo) [Example 353, N-(cis-2-(((cis-4-phenylcyclohexyl)oxy)methyl)-piperidin-3-yl)cyclopropanesulfonamide] | 
13 | 51 | 104 | CC(=O)N1CCC[C@H](NS(=O)(=O)C2CC2)[C@@H]1CO[C@H]1CC[C@@H](c2ccccc2)CC1 (relative stereo) [Example 354, N-(cis-1-acetyl-2-(((cis-4-phenylcyclohexyl)oxy)methyl)-piperidin-3-yl)cyclopropanesulfonamide] | 
14 | 0.44 | 108 | CCNC(=O)N1CCC[C@H](NS(=O)(=O)C2CC2)[C@@H]1CO[C@H]1CC[C@@H](c2ccccc2)CC1 (relative stereo) [Example 355, cis-3-((cyclopropylsulfonyl)amino)-N-ethyl-2-(((cis-4-phenylcyclohexyl)oxy)methyl)-piperidine-1-carboxamide] | 
15 | 84 | 101 | CC(=O)N1CCC[C@H](NS(=O)(=O)C2CC2)[C@@H]1CO[C@H]1CC[C@@H](C(C)C)CC1 (relative stereo) [Example 357, N-(cis-1-acetyl-2-(((cis-4-isopropylcyclohexyl)oxy)methyl)-piperidin-3-yl)cyclopropanesulfonamide] | 
16 | 1.1 | 97 | CNC(=O)N1CCC[C@H](NS(=O)(=O)C2CC2)[C@@H]1CO[C@H]1CC[C@@H](c2ccccc2)CC1 (relative stereo) [Example 359, cis-3-((cyclopropylsulfonyl)amino)-N-methyl-2-(((cis-4-phenylcyclohexyl)oxy)methyl)-piperidine-1-carboxamide] | 
17 | 9.5 |  | COC(=O)N1CCC[C@H](NS(C)(=O)=O)[C@@H]1CO[C@H]1CC[C@@H](c2ccc(O)cc2)CC1 [Example 348, methyl (2R,3S)-2-(((cis-4-(4-hydroxyphenyl)cyclohexyl)oxy)-methyl)-3-((methylsulfonyl)amino)piperidine-1-carboxylate] | Emax (%) (human OX2 receptor; [2]): 92%
18 | 1600 | 116 | CCNC(=O)N1CCC[C@H](NS(C)(=O)=O)[C@@H]1CO[C@H]1CCC[C@@H]1Oc1ccccc1 [Example 350, cis-N-ethyl-3-((methylsulfonyl)amino)-2-((((1S,2S)-2-phenoxycyclopentyl)oxy)methyl)-piperidine-1-carboxamide] | 

— patent US10287305B2, “Substituted piperidine compound and use thereof” (Takeda Pharmaceutical Company Limited, priority 2016, dated 2019)
